In brackets after ≈: the same amount, converted by molar mass. Where two headings read alike, the source gives them in different places.
Assays:
MRSA (13B262) = test: MIC, broth microdilution (CLSI), clinical isolate; type: cell-based; details: Staphylococcus aureus
From the text: (§1) 6 standard strains and 3 clinical isolates were used to the preliminary evaluation of in vitro antibacterial activities of oxazolidinone-fluoroquinolone hybrids. For the further evaluation of hybrids OBP-4 and OBP-5, 263 clinical isolates including S. aureus (46), S. haemolyticus(32), S. epidermidis (10), E. faecalis (72), E. faecium (47), S. pneumoniae (13), H. parasuis (34), S. suis (9), and 8 resistant strains including MRSA, MRSE, CIP-resistant S. aureus and S. haemolyticus, VAN and quinolone-resistant S. pneumoniae, LZD-resistant E. faecalis, LZD/VAN and quinolone-resistant E. faecium were collected and tested.
(§2) Susceptibility testing of oxazolidinone-fluoroquinolone hybrids against various bacteria was performed by the broth microdilution method as outlined by the Clinical and Laboratory Standards Institute (CLSI). Three types of media, including cation-adjusted Mueller Hinton broth, Haemophilus Test Medium and cation-adjusted Mueller Hinton broth that contained 3%–5% lysed horse blood, were used to culture the corresponding bacteria. All compounds including comparator drugs were dissolved in an appropriate solvent at a concentration of 2.048 mg/mL and then serially diluted two-fold to provide the required concentrations. A final inoculum of 5 × 10^5 CFU/mL was used and plates were read after incubation for 16–24 h at 35 °C. […] Standard quality control strains (ATCC) were included throughout. Each determination was repeated in triplicate.

[1] = test system: S. agalactiae^R (13B317), levofloxacin-resistant S. agalactiae; test: MIC, broth microdilution (CLSI), clinical isolate; type: cell-based; details: Streptococcus agalactiae; levofloxacin-resistant S. agalactiae (13B317)
From the text: as §1, §2

VRE (13B330) = test: MIC, broth microdilution (CLSI), clinical isolate; type: cell-based, vancomycin-resistant enterococcus; details: Enterococcus
From the text: as §1, §2

E. coli (ATCC25922) = test: MIC, broth microdilution (CLSI), standard strain; type: cell-based; details: Escherichia coli; E. coli (ATCC25922); read-out: MIC
From the text: as §1, §2

E. faecalis (ATCC29212) = test: MIC, broth microdilution (CLSI), standard strain; type: cell-based; details: Enterococcus faecalis
From the text: as §1, §2

[2] = test system: H. influenzae (ATCC49247); test: MIC, broth microdilution (CLSI), standard strain; type: cell-based; details: Haemophilus influenzae
From the text: as §1, §2

[3] = test system: P. Aeruginosa (ATCC27853); test: MIC, broth microdilution (CLSI), standard strain; type: cell-based; details: Pseudomonas aeruginosa; P. Aeruginosa (ATCC27853); read-out: MIC
From the text: as §1, §2

S. aureus (ATCC29213) = test: MIC, broth microdilution (CLSI), standard strain; type: cell-based; details: Staphylococcus aureus
From the text: as §1, §2

[4] = test system: S. pneumoniae (ATCC49619); test: MIC, broth microdilution (CLSI), standard strain; type: cell-based; details: Streptococcus pneumoniae
From the text: as §1, §2

[5] = test system: S. aureus (46) clinical isolates; test: Susceptibility of clinical isolates (MIC); type: cell-based, Staphylococcus aureus
Description: as §2, with “All compounds including comparator drugs were dissolved in an appropriate solvent at a concentration of 2.048 mg/mL and then serially diluted two-fold to provide the required concentrations.” left out

[6] = test system: S. haemolyticus (32) clinical isolates; test: Susceptibility of clinical isolates (MIC); type: cell-based, Staphylococcus haemolyticus
Description: as §2, with “All compounds including comparator drugs were dissolved in an appropriate solvent at a concentration of 2.048 mg/mL and then serially diluted two-fold to provide the required concentrations.” left out

[7] = test system: S. epidermidis (10) clinical isolates; test: Susceptibility of clinical isolates (MIC); type: cell-based, Staphylococcus epidermidis
Description: as §2, with “All compounds including comparator drugs were dissolved in an appropriate solvent at a concentration of 2.048 mg/mL and then serially diluted two-fold to provide the required concentrations.” left out

[8] = test system: S. suis (9) clinical isolates; test: Susceptibility of clinical isolates (MIC); type: cell-based, Streptococcus suis; details: Streptococcus suis
Description: as §2, with “All compounds including comparator drugs were dissolved in an appropriate solvent at a concentration of 2.048 mg/mL and then serially diluted two-fold to provide the required concentrations.” left out

[9] = test system: S. pneumoniae (13) clinical isolates; test: Susceptibility of clinical isolates (MIC); type: cell-based, Streptococcus pneumoniae
Description: as §2, with “All compounds including comparator drugs were dissolved in an appropriate solvent at a concentration of 2.048 mg/mL and then serially diluted two-fold to provide the required concentrations.” left out

[10] = test system: E. faecium (47) clinical isolates; test: Susceptibility of clinical isolates (MIC); type: cell-based, Enterococcus faecium
Description: as §2, with “All compounds including comparator drugs were dissolved in an appropriate solvent at a concentration of 2.048 mg/mL and then serially diluted two-fold to provide the required concentrations.” left out

[11] = test system: H. parasuis (34) clinical isolates; test: Susceptibility of clinical isolates (MIC); type: cell-based, Haemophilus parasuis; details: Glaesserella parasuis
Description: as §2, with “All compounds including comparator drugs were dissolved in an appropriate solvent at a concentration of 2.048 mg/mL and then serially diluted two-fold to provide the required concentrations.” left out

MRSE = test: MIC against drug-resistant strain; type: cell-based, S. epidermidis; details: Staphylococcus epidermidis
Description: (§3) 6 standard strains and 3 clinical isolates were used to the preliminary evaluation of in vitro antibacterial activities of oxazolidinone-fluoroquinolone hybrids.
as §2, with “All compounds including comparator drugs were dissolved in an appropriate solvent at a concentration of 2.048 mg/mL and then serially diluted two-fold to provide the required concentrations.” left out

[12] = test system: LZD-resistant E. faecalis; test: microbe, parasite or virus in culture; type: cell-based; details: Enterococcus faecalis
Description: as §3
as §2, with “All compounds including comparator drugs were dissolved in an appropriate solvent at a concentration of 2.048 mg/mL and then serially diluted two-fold to provide the required concentrations.” left out

CIP-resistant S. aureus = test: MIC against drug-resistant strain; type: cell-based; details: Staphylococcus aureus
Description: as §3
as §2, with “All compounds including comparator drugs were dissolved in an appropriate solvent at a concentration of 2.048 mg/mL and then serially diluted two-fold to provide the required concentrations.” left out

[13] = test system: CIP-resistant S. haemolyticus; test: MIC against drug-resistant strain; type: cell-based; details: Staphylococcus haemolyticus
Description: as §3
as §2, with “All compounds including comparator drugs were dissolved in an appropriate solvent at a concentration of 2.048 mg/mL and then serially diluted two-fold to provide the required concentrations.” left out

[14] = test system: LZD and quinolone-resistant E. faecium; test: MIC against drug-resistant strain; type: cell-based; details: Enterococcus faecium
Description: as §3
as §2, with “All compounds including comparator drugs were dissolved in an appropriate solvent at a concentration of 2.048 mg/mL and then serially diluted two-fold to provide the required concentrations.” left out

MRSA = test: MIC against drug-resistant strain; type: cell-based; details: Staphylococcus aureus
Description: as §3
as §2, with “All compounds including comparator drugs were dissolved in an appropriate solvent at a concentration of 2.048 mg/mL and then serially diluted two-fold to provide the required concentrations.” left out

[15] = test system: VAN and quinolone-resistant E. faecium; test: MIC against drug-resistant strain; type: cell-based; details: Enterococcus faecium
Description: as §3
as §2, with “All compounds including comparator drugs were dissolved in an appropriate solvent at a concentration of 2.048 mg/mL and then serially diluted two-fold to provide the required concentrations.” left out

[16] = test system: VAN and quinolone-resistant S. pneumoniae; test: MIC against drug-resistant strain; type: cell-based; details: Streptococcus pneumoniae
Description: as §3
as §2, with “All compounds including comparator drugs were dissolved in an appropriate solvent at a concentration of 2.048 mg/mL and then serially diluted two-fold to provide the required concentrations.” left out

[17] = E. faecalis (ATCC29212), read-out: MIC

## CN1COc2c(N3CC4C(C3)C4Nc3ccc(N4C[C@H](CO)OC4=O)cc3F)c(F)cc3c(=O)c(C(=O)O)cn1c23 (some centres unmarked) [OBP-6]
MRSA (13B262)
  MIC: 64 µg/mL (≈ 112 µM)
[1]
  MIC: 2 µg/mL (≈ 3.51 µM)
VRE (13B330)
  MIC: 64 µg/mL (≈ 112 µM)
E. coli (ATCC25922)
  MIC: 1 µg/mL (≈ 1.76 µM)
E. faecalis (ATCC29212); [17]
  MIC: 4 µg/mL (≈ 7.02 µM)
[2]
  MIC: 0.016 µg/mL (≈ 0.0281 µM)
[3]
  MIC: 16 µg/mL (≈ 28.1 µM)
S. aureus (ATCC29213)
  MIC: 0.062 µg/mL (≈ 0.109 µM)
[4]
  MIC: 0.5 µg/mL (≈ 0.878 µM)

## COc1c(N2C[C@@H]3CCCN[C@@H]3C2)c(F)cc2c(=O)c(C(=O)O)cn(C3CC3)c12 [MXF, moxifloxacin, reference compound]
MRSA (13B262)
  MIC: 8 µg/mL (≈ 19.9 µM)
[1]
  MIC: 4 µg/mL (≈ 9.96 µM)
VRE (13B330)
  MIC: 64 µg/mL (≈ 159 µM)
E. coli (ATCC25922)
  MIC: 0.016 µg/mL (≈ 0.0399 µM)
E. faecalis (ATCC29212); ATCC29212
  MIC: 0.125 µg/mL (≈ 0.311 µM)
[2]
  MIC: 0.008 µg/mL (≈ 0.0199 µM)
[3]
  MIC: 4 µg/mL (≈ 9.96 µM)
S. aureus (ATCC29213)
  MIC: 0.031 µg/mL (≈ 0.0772 µM)
[4]
  MIC: 0.062 µg/mL (≈ 0.154 µM)

## CN[C@H](CC(C)C)C(=O)N[C@H]1C(=O)N[C@@H](CC(N)=O)C(=O)N[C@H]2C(=O)N[C@H]3C(=O)N[C@H](C(=O)N[C@H](C(=O)O)c4cc(O)cc(O)c4-c4cc3ccc4O)[C@H](O)c3ccc(c(Cl)c3)Oc3cc2cc(c3O[C@@H]2O[C@H](CO)[C@@H](O)[C@H](O)[C@H]2O[C@H]2C[C@](C)(N)[C@H](O)[C@H](C)O2)Oc2ccc(cc2Cl)[C@H]1O [VAN, vancomycin]
[5]; S. aureus clinical isolates, CLSI criteria
  CLSI %S (susceptible): 100.0/- %
[5]; Staphylococcus aureus
  MIC50: 0.5 µg/mL (≈ 0.345 µM)
  MIC90: 0.5 µg/mL (≈ 0.345 µM)
[5]; Staphylococcus aureus, read-out: MIC Range
  MIC: 0.25 to 0.5 µg/mL (≈ 0.173 to 0.345 µM)
[6]; S. haemolyticus clinical isolates, CLSI criteria
  CLSI %S (susceptible): 96.2/- %
[6]; Staphylococcus haemolyticus
  MIC50: 0.5 µg/mL (≈ 0.345 µM)
  MIC90: 2 µg/mL (≈ 1.38 µM)
[6]; Staphylococcus haemolyticus, read-out: MIC Range
  MIC: 0.0625 to 4 µg/mL (≈ 0.0431 to 2.76 µM)
[7]; S. epidermidis clinical isolates, CLSI criteria
  CLSI %S (susceptible): 100.0/- %
[7]; Staphylococcus epidermidis
  MIC50: 1 µg/mL (≈ 0.69 µM)
  MIC90: 2 µg/mL (≈ 1.38 µM)
[7]; Staphylococcus epidermidis, read-out: MIC Range
  MIC: 1 to 2 µg/mL (≈ 0.69 to 1.38 µM)
[8]
  MIC50: 0.25 µg/mL (≈ 0.173 µM)
  MIC90: 2 µg/mL (≈ 1.38 µM)
[8]; read-out: MIC Range
  MIC: 0.125 to 2 µg/mL (≈ 0.0863 to 1.38 µM)
[9]; S. pneumoniae clinical isolates, CLSI criteria
  CLSI %S (susceptible): 53.8/- %
[9]; Streptococcus pneumoniae
  MIC50: 1 µg/mL (≈ 0.69 µM)
  MIC90: 32 µg/mL (≈ 22.1 µM)
[10]; E. faecium clinical isolates, CLSI criteria
  CLSI %S (susceptible): 100.0/- %
[10]; E. faecium, 47 clinical isolates
  MIC Range: 0.5 to 4 µg/mL
[10]; Enterococcus faecium
  MIC50: 2 µg/mL (≈ 1.38 µM)
  MIC90: 4 µg/mL (≈ 2.76 µM)
[11]
  MIC50: 8 µg/mL (≈ 5.52 µM)
  MIC90: > 32 µg/mL
MRSE
  MIC: 1 µg/mL (≈ 0.69 µM)
[12]
  MIC: 2 µg/mL (≈ 1.38 µM)
CIP-resistant S. aureus
  MIC: 0.25 µg/mL (≈ 0.173 µM)
[13]
  MIC: 2 µg/mL (≈ 1.38 µM)
[14]
  MIC: 4 µg/mL (≈ 2.76 µM)
MRSA
  MIC: 1 µg/mL (≈ 0.69 µM)
[15]
  MIC: 16 µg/mL (≈ 11 µM)
[16]
  MIC: > 32 µg/mL

## O=C(O)c1cn(C2CC2)c2cc(N3CCC(O)(COc4ccc(N5C[C@H](CO)OC5=O)cc4F)CC3)c(F)cc2c1=O [CZD, cadazolid, reference compound]
MRSA (13B262)
  MIC: 0.5 µg/mL (≈ 0.854 µM)
[1]
  MIC: 0.125 µg/mL (≈ 0.213 µM)
VRE (13B330)
  MIC: 0.25 µg/mL (≈ 0.427 µM)
E. coli (ATCC25922)
  MIC: 8 µg/mL (≈ 13.7 µM)
E. faecalis (ATCC29212); [17]
  MIC: 0.5 µg/mL (≈ 0.854 µM)
[2]
  MIC: 1 µg/mL (≈ 1.71 µM)
[3]
  MIC: 64 µg/mL (≈ 109 µM)
S. aureus (ATCC29213)
  MIC: 0.5 µg/mL (≈ 0.854 µM)
[4]
  MIC: 0.062 µg/mL (≈ 0.106 µM)

## CN1COc2c(N3CCC(O)(COc4ccc(N5C[C@H](CO)OC5=O)cc4F)CC3)c(F)cc3c(=O)c(C(=O)O)cn1c23 [OBP-1]
MRSA (13B262)
  MIC: 2 µg/mL (≈ 3.32 µM)
[1]
  MIC: 0.5 µg/mL (≈ 0.83 µM)
VRE (13B330)
  MIC: 1 µg/mL (≈ 1.66 µM)
E. coli (ATCC25922)
  MIC: 4 µg/mL (≈ 6.64 µM)
E. faecalis (ATCC29212); [17]
  MIC: 1 µg/mL (≈ 1.66 µM)
[2]
  MIC: 1 µg/mL (≈ 1.66 µM)
[3]
  MIC: 64 µg/mL (≈ 106 µM)
S. aureus (ATCC29213)
  MIC: 1 µg/mL (≈ 1.66 µM)
[4]
  MIC: 0.25 µg/mL (≈ 0.415 µM)

From paper PMC6514978, “Synthesis, Antibacterial Activities, Mode of Action and Acute Toxicity Studies of New Oxazolidinone-Fluoroquinolone Hybrids” (Molecules, 2019)
